From US10738056B2 (Aduro BioTech, Inc., priority 2017, dated 2020)

Assays:
[1] = target: Human cGAS amino acids 155-522 (Homo sapiens (Human), UniProt Q8N884); assay: cGAS biochemical activity assay (ATP remaining, Kinase-Glo Max luminescence); settings: human cGAS 155-522, ATP remaining (Kinase-Glo Max); read-out: cGAS IC50
[2] = tested on: cGAS/STING pathway in THP1 cells; assay: THP1 cell-based cGAS/STING pathway activity assay (IRF-3-linked luciferase reporter); settings: Homo sapiens, THP-1
From the text: A cellular assay can be used to assess the compounds of the invention for their ability to inhibit the cGAS/STING pathway. Cells that express a luciferase-based reporter that is linked to IRF-3 activation are used to determine response as a function of compound concentration. Such an assay is described in Vincent et al., Nature Communications 2017, 8(1):750, doi: 10.1038/s41467-017-00833-9.
A cellular assay can be used to assess the compounds of the invention for their ability to inhibit the cGAS/STING pathway. Cells that express a luciferase-based reporter that is linked to IRF-3 activation are used to determine response as a function of compound concentration. Such an assay is described in Vincent et al., Nature Communications 2017, 8(1):750, doi: 10.1038/s41467-017-00833-9. Compounds of the invention were assessed using similar assay methods in a THP1 cell assay to generate IC50 values as provided in the following Table 16. In this table, activity level “A” indicates an IC50 value less than 20 μM, “B” indicates an IC50 value between 20 and 100 μM, and “C” indicates an IC50 value above the upper limit of the assay (100 μM), or where an IC50 value could not be generated from the data.

Sequence of Human cGAS amino acids 155-522 (Q8N884 157-522): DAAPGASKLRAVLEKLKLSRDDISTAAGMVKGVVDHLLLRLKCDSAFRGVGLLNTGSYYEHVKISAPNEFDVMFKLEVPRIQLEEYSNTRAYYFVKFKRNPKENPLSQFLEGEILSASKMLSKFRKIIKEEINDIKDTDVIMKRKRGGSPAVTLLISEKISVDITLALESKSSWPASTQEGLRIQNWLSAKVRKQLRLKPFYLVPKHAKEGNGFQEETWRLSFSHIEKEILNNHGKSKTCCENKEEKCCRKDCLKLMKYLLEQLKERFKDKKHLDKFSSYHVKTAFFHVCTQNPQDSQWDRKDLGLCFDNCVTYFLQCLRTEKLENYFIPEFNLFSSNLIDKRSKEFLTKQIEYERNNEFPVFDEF

IC50 [1] [µM]	IC50 [2] [µM]	Compound
< 20	20 to 100	COc1c(C)ccc2oc(-c3c(C)[nH]c4c(-c5ccccc5)c(C(F)(F)F)nn4c3=O)nc12 [Compound C1093, 6-(4-methoxy-5-methylbenzo[d]oxazol-2-yl)-5-methyl-3-phenyl-2-(trifluoromethyl)pyrazolo[1,5-a]pyrimidin-7(4H)-one]
< 20	> 100	Cc1[nH]c2c(-c3ccccc3)c(C(F)(F)F)nn2c(=O)c1-c1nc2c(C#N)cccc2o1 [Compound C1075, 2-(5-methyl-7-oxo-3-phenyl-2-(trifluoromethyl)-4,7-dihydropyrazolo[1,5-a]pyrimidin-6-yl)benzo[d]oxazole-4-carbonitrile]
< 20	> 100	COc1cc(CO)cc2oc(-c3c(C)[nH]c4c(-c5ccccc5)c(C#N)nn4c3=O)nc12 [Compound C1203, 6-(6-(hydroxymethyl)-4-methoxybenzo[d]oxazol-2-yl)-5-methyl-7-oxo-3-phenyl-4,7-dihydropyrazolo[1,5-a]pyrimidine-2-carbonitrile]
< 20	< 20	COCCOc1cccc2oc(-c3c(C)[nH]c4c(-c5ccccc5)c(C(F)(F)F)nn4c3=O)nc12 [Compound C1041, 6-(4-(2-methoxyethoxy)benzo[d]oxazol-2-yl)-5-methyl-3-phenyl-2-(trifluoromethyl)pyrazolo[1,5-a]pyrimidin-7(4H)-one]
< 20	> 100	COc1cccc2oc(-c3c(C(=O)O)[nH]c4c(-c5ccccc5)c(C#N)nn4c3=O)nc12 [Compound C1249, 2-cyano-6-(4-methoxybenzo[d]oxazol-2-yl)-7-oxo-3-phenyl-4,7-dihydropyrazolo[1,5-a]pyrimidine-5-carboxylic acid]
< 20	> 100	COc1ccc(NC(=O)c2c(C)[nH]c3c(-c4ccccc4)c(C(F)(F)F)nn3c2=O)nn1 [Compound A1110, N-(6-methoxypyridazin-3-yl)-5-methyl-7-oxo-3-phenyl-2-(trifluoromethyl)-4,7-dihydropyrazolo[1,5-a]pyrimidine-6-carboxamide]
< 20	20 to 100	COc1ccnc(NC(=O)c2c(C)[nH]c3c(-c4ccccc4)c(C(F)(F)F)nn3c2=O)n1 [Compound A1104, N-(4-methoxypyrimidin-2-yl)-5-methyl-7-oxo-3-phenyl-2-(trifluoromethyl)-4,7-dihydropyrazolo[1,5-a]pyrimidine-6-carboxamide]
< 20	20 to 100	Cc1[nH]c2c(-c3ccccc3)c(C(F)(F)F)nn2c(=O)c1C(=O)NS(=O)(=O)c1ccccc1 [Compound A1116, 5-methyl-7-oxo-3-phenyl-N-(phenylsulfonyl)-2-(trifluoromethyl)-4,7-dihydropyrazolo[1,5-a]pyrimidine-6-carboxamide]
20 to 250	–	COc1cccc2oc(-c3c(C)[nH]c4c(-c5ccccc5)c(S(C)(=O)=O)nn4c3=O)nc12 [Compound C1068, 6-(4-methoxybenzo[d]oxazol-2-yl)-5-methyl-2-(methylsulfonyl)-3-phenylpyrazolo[1,5-a]pyrimidin-7(4H)-one]
> 250	–	Cc1[nH]c2c(-c3ccccc3)c(C(F)(F)F)nn2c(=O)c1CC(=O)N1CCN(c2ccccc2)CC1 [Compound B1007, 5-methyl-6-(2-oxo-2-(4-phenylpiperazin-1-yl)ethyl)-3-phenyl-2-(trifluoromethyl)pyrazolo[1,5-a]pyrimidin-7(4H)-one]
20 to 250	–	Cc1[nH]c2c(-c3ccccc3)c(C(F)(F)F)nn2c(=O)c1C(=O)Nc1cccnc1 [Compound A1005, 5-methyl-7-oxo-3-phenyl-N-(pyridin-3-yl)-2-(trifluoromethyl)-4,7-dihydropyrazolo[1,5-a]pyrimidine-6-carboxamide]
< 20	–	COc1cncc(NC(=O)c2c(C)[nH]c3c(-c4ccccc4)c(C(F)(F)F)nn3c2=O)c1 [Compound A1094, N-(5-methoxypyridin-3-yl)-5-methyl-7-oxo-3-phenyl-2-(trifluoromethyl)-4,7-dihydropyrazolo[1,5-a]pyrimidine-6-carboxamide]
> 250	–	Cc1[nH]c2c(-c3ccccc3)c(C(F)(F)F)nn2c(=O)c1-c1nnc(-c2cccc(N)c2)o1 [Compound D1079, 6-(5-(3-aminophenyl)-1,3,4-oxadiazol-2-yl)-5-methyl-3-phenyl-2-(trifluoromethyl)pyrazolo[1,5-a]pyrimidin-7(4H)-one]
> 250	–	COCCOc1nn2c(=O)c(-c3nc4c(OC)cccc4o3)c(C)[nH]c2c1-c1ccccc1 [Compound C1083, 6-(4-methoxybenzo[d]oxazol-2-yl)-2-(2-methoxyethoxy)-5-methyl-3-phenylpyrazolo[1,5-a]pyrimidin-7(4H)-one]
20 to 250	–	COCC1CCCCN1c1nnc(-c2c(C)[nH]c3c(-c4ccccc4)c(C(F)(F)F)nn3c2=O)o1 (stereo not drawn) [Compound D1060, 6-(5-(2-(methoxymethyl)piperidin-1-yl)-1,3,4-oxadiazol-2-yl)-5-methyl-3-phenyl-2-(trifluoromethyl)pyrazolo[1,5-a]pyrimidin-7(4H)-one]
> 250	–	Cc1[nH]c2c(-c3ccccc3)c(C(F)(F)F)nn2c(=O)c1C(=O)N1CCCCC1 [Compound A1011, 5-methyl-3-phenyl-6-(piperidine-1-carbonyl)-2-(trifluoromethyl)pyrazolo[1,5-a]pyrimidin-7(4H)-one]
> 250	–	COc1ccccc1-c1c(C(F)(F)F)nn2c(=O)c(-c3nc4c(OC)cccc4o3)c(C)[nH]c12 [Compound C1086, 6-(4-methoxybenzo[d]oxazol-2-yl)-3-(2-methoxyphenyl)-5-methyl-2-(trifluoromethyl)pyrazolo[1,5-a]pyrimidin-7(4H)-one]
< 20	–	Cc1[nH]c2c(-c3ccccc3)c(C(F)(F)F)nn2c(=O)c1C(=O)Nc1ccccc1NS(C)(=O)=O [Compound A1022, 5-methyl-N-(2-(methylsulfonamido)phenyl)-7-oxo-3-phenyl-2-(trifluoromethyl)-4,7-dihydropyrazolo[1,5-a]pyrimidine-6-carboxamide]
> 250	–	COc1cccc(NC(=O)c2c(C)[nH]c3c(-c4ccccc4)c(S(C)(=O)=O)nn3c2=O)c1 [Compound A1126, N-(3-methoxyphenyl)-5-methyl-2-(methylsulfonyl)-7-oxo-3-phenyl-4,7-dihydropyrazolo[1,5-a]pyrimidine-6-carboxamide]
> 250	–	Cc1[nH]c2c(-c3ccccc3)c(C(F)(F)F)nn2c(=O)c1-c1nnc(N(C)C2CCCCC2)o1 [Compound D1043, 6-(5-(cyclohexyl(methyl)amino)-1,3,4-oxadiazol-2-yl)-5-methyl-3-phenyl-2-(trifluoromethyl)pyrazolo[1,5-a]pyrimidin-7(4H)-one]
20 to 250	–	COc1cccc2oc(-c3c(C)[nH]c4c(-c5ccccc5)c(OCC(=O)O)nn4c3=O)nc12 [Compound C1072, 2-((6-(4-methoxybenzo[d]oxazol-2-yl)-5-methyl-7-oxo-3-phenyl-4,7-dihydropyrazolo[1,5-a]pyrimidin-2-yl)oxy)acetic acid]
20 to 250	–	Cc1nnc(-c2c(C)[nH]c3c(-c4ccccc4)c(C(F)(F)F)nn3c2=O)o1 [Compound D1001, 5-methyl-6-(5-methyl-1,3,4-oxadiazol-2-yl)-3-phenyl-2-(trifluoromethyl)pyrazolo[1,5-a]pyrimidin-7(4H)-one]
> 250	–	COCCNC(=O)Cc1c(C)[nH]c2c(-c3ccccc3)c(C(F)(F)F)nn2c1=O [Compound B1003, N-(2-methoxyethyl)-2-(5-methyl-7-oxo-3-phenyl-2-(trifluoromethyl)-4,7-dihydropyrazolo[1,5-a]pyrimidin-6-yl)acetamide]
20 to 250	–	Cc1[nH]c2c(-c3ccccc3)c(C(F)(F)F)nn2c(=O)c1-c1ccncc1 [Compound C1001, 5-methyl-3-phenyl-6-(pyridin-4-yl)-2-(trifluoromethyl)pyrazolo[1,5-a]pyrimidin-7(4H)-one]
20 to 250	–	Cc1[nH]c2c(-c3ccccc3)c(C(F)(F)F)nn2c(=O)c1-c1nnc(N2CCN(C)CC2)o1 [Compound D1058, 5-methyl-6-(5-(4-methylpiperazin-1-yl)-1,3,4-oxadiazol-2-yl)-3-phenyl-2-(trifluoromethyl)pyrazolo[1,5-a]pyrimidin-7(4H)-one]
20 to 250	–	COC1CCCCC1NC(=O)c1c(C)[nH]c2c(-c3ccccc3)c(C(F)(F)F)nn2c1=O (single isomer, unassigned) [Compound A1085, N-(2-methoxycyclohexyl)-5-methyl-7-oxo-3-phenyl-2-(trifluoromethyl)-4,7-dihydropyrazolo[1,5-a]pyrimidine-6-carboxamide]
20 to 250	–	Cc1[nH]c2c(-c3ccccc3)c(C(F)(F)F)nn2c(=O)c1-c1nnc(-c2cccnc2)o1 [Compound D1063, 5-methyl-3-phenyl-6-(5-(pyridin-3-yl)-1,3,4-oxadiazol-2-yl)-2-(trifluoromethyl)pyrazolo[1,5-a]pyrimidin-7(4H)-one]
20 to 250	–	Cc1[nH]c2c(-c3ccccc3)c(C(F)(F)F)nn2c(=O)c1Cc1nnc(C2CCCCC2)o1 [Compound D1035, 6-((5-cyclohexyl-1,3,4-oxadiazol-2-yl)methyl)-5-methyl-3-phenyl-2-(trifluoromethyl)pyrazolo[1,5-a]pyrimidin-7(4H)-one]
